Where two headings read alike, the source gives them in different places.

Data on 22 compounds can be found in US8685999B2, “Beta carboline sulphonylurea derivatives as EP4 receptor antagonists” (Merck Sharp & Dohme Corp., priority 2008, dated 2014).

This assay addresses T1, EP4 (Homo sapiens, UniProt P35408).
T1 construct: expressed in transfected cells; membranes prepared by differential centrifugation
As to the kind of experiment: Prostanoid receptor binding assay (radioligand displacement binding assay). How it is done:
Prostanoid receptor cDNAs corresponding to full length coding sequences are subcloned into the appropriate sites of mammalian expression vectors and transfected into HEK 293(ebna) cells. HEK 293(ebna) cells expressing the individual cDNAs are grown under selection and individual colonies are isolated after 2-3 weeks of growth using the cloning ring method and subsequently expanded into clonal cell lines.
Transfected HEK 293(ebna) cells are maintained in culture, harvested and membranes are prepared by differential centrifugation, following lysis of the cells in the presence of protease inhibitors, for use in receptor binding assays. Prostanoid receptor binding assays (for DP1, DP2 (CRTH2), EP1, EP2, EP3-III, EP4, FP, IP, and TP) are performed in 10 mM MES/KOH (pH 6.0) (EPs, FP and TP) or 10 mM HEPES/KOH (pH 7.4) (DPs and IP), containing 1 mM EDTA, 2.5-30 mM divalent cation and the appropriate radio-ligand. Synthetic compounds are added in DMSO which is kept constant at 1% (v/v) in all incubations. The reaction is initiated by addition of membrane protein. Non-specific binding is determined in the presence of 10 μM of the corresponding non-radioactive prostanoid. Incubations are conducted for 60-120 min at room temperature or 30° C. and terminated by rapid filtration. Specific binding is calculated by subtracting non specific binding from total binding. The residual specific binding at each ligand concentration is calculated and expressed as a function of ligand concentration in order to construct sigmoidal concentration-response curves. The binding affinity of the compounds is determined by calculating the equilibrium inhibition constant (Ki) from the equation Ki=InPt/1+[radio-ligand]/Kd where Kd is the equilibrium dissociation constant for the radio-ligand:receptor interaction and InPt is the inflection point of the dose-response curves.
Abramovitz, M. et al., Biochem, Biophys. Acta, 2000, 1483, pp. 285.
On the technique in general: Displacement assays read how much labelled ligand stays bound in the presence of the test substance.

Setting [1] is: column marked X when IC50 < 1, read-out: IC50 (nm) X < 1.
Setting [2] is: column marked X when IC50 > 5, read-out: IC50 (nm) X > 5.
Setting [3] is: radioligand displacement binding assay, read-out: IC50.

T1 sequence (P35408 whole entry): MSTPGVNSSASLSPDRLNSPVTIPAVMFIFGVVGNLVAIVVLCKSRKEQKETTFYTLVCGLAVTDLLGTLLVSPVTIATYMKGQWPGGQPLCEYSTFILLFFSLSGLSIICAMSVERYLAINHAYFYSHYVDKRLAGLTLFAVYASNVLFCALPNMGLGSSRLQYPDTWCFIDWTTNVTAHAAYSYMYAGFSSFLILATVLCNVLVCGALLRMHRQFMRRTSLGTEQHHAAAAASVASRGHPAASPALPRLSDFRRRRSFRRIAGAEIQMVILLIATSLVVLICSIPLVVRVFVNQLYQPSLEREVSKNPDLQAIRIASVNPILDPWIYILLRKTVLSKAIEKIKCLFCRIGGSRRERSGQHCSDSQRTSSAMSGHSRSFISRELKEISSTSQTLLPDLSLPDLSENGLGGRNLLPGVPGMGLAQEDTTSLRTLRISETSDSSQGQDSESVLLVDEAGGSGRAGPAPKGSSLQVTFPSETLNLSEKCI

Turning to `CN1CCc2c(n(-c3ccc(CCNC(=O)NS(=O)(=O)c4ccc(Cl)cc4)cc3)c3ccc(Cl)c(Cl)c23)C1=O` [Example 1-11, 4-chloro-N-[({2-[4-(5,6-dichloro-2-methyl-1-oxo-1,2,3,4-tetrahydro-9H-beta-carbolin-9-yl)phenyl]ethyl}amino)carbonyl]benzenesulfonamide], under setting [1], the concentration for half-maximal inhibition (IC50) (as a rule, the midpoint of a concentration-inhibition curve) is less than 1 nM.
On to `CN1CCc2c(n(-c3ccc(CCNC(=O)NS(=O)(=O)c4ccc(Cl)cc4)cc3)c3cc(Cl)ccc23)C1=O` [Example 1-12, 4-chloro-N-[({2-[4-(7-chloro-2-methyl-1-oxo-1,2,3,4-tetrahydro-9H-beta-carbolin-9-yl)phenyl]ethyl}amino)carbonyl]benzenesulfonamide], for which the IC50 under setting [1] is less than 1 nM.
Turning to `CN1CCc2c(n(-c3ccc(CCNC(=O)NS(=O)(=O)c4ccc(Cl)cc4)cc3)c3cccc(Cl)c23)C1=O` [Example 1-13, 4-chloro-N-[({2-[4-(5-chloro-2-methyl-1-oxo-1,2,3,4-tetrahydro-9H-beta-carbolin-9-yl)phenyl]ethyl}amino)carbonyl]benzenesulfonamide], the 50% inhibitory concentration (IC50) under setting [1] was less than 1 nM.
Consider `CN1CCc2c(n(-c3ccc(CCNC(=O)NS(=O)(=O)c4ccc(Cl)cc4)cc3)c3cccc(Br)c23)C1=O` [Example 1-14, N-[({2-[4-(5-bromo-2-methyl-1-oxo-1,2,3,4-tetrahydro-9H-beta-carbolin-9-yl)phenyl]ethyl}amino)carbonyl]-4-chlorobenzenesulfonamide], for which, under setting [1], the IC50 is less than 1 nM.
Take `CN1CCc2c(n(-c3ccc(CCNC(=O)NS(=O)(=O)c4ccc(Cl)cc4)cc3)c3cc(Br)ccc23)C1=O` [Example 1-15, N-[({2-[4-(7-bromo-2-methyl-1-oxo-1,2,3,4-tetrahydro-9H-beta-carbolin-9-yl)phenyl]ethyl}amino)carbonyl]-4-chlorobenzenesulfonamide]: the IC50 under setting [1] was less than 1 nM.
For the compound `CN1CCc2c(n(-c3ccc(CC4(NC(=O)NS(=O)(=O)c5ccc(Cl)cc5)CC4)cc3)c3ccc(Br)cc23)C1=O` [Example 1-16, N-[({1-[4-(6-bromo-2-methyl-1-oxo-1,2,3,4-tetrahydro-9H-beta-carbolin-9-yl)benzyl]cyclopropyl}amino)carbonyl]-4-chlorobenzenesulfonamide], under setting [1], the IC50 is less than 1 nM.
On the same count and under the same terms, under `CN1CCc2c(n(-c3ccc(CCNC(=O)NS(=O)(=O)c4ccc(Cl)cc4)cc3)c3cccc(-c4ccccc4)c23)C1=O` [Example 1-17, 4-chloro-N-[({2-[4-(2-methyl-1-oxo-5-phenyl-1,2,3,4-tetrahydro-9H-beta-carbolin-9-yl)phenyl]ethyl}amino)carbonyl]benzenesulfonamide] stands less than 1 nM.
On to `CN1CCc2c(n(-c3ccc(CCNC(=O)NS(=O)(=O)c4ccc(Cl)cc4)cc3)c3cc(-c4ccccc4)ccc23)C1=O` [Example 1-18, 4-chloro-N-[({2-[4-(2-methyl-1-oxo-7-phenyl-1,2,3,4-tetrahydro-9H-beta-carbolin-9-yl)phenyl]ethyl}amino)carbonyl]benzenesulfonamide], for which the half-maximal inhibitory concentration (IC50) was more than 5 nM under setting [2] and more than 5 nM under setting [3].
Take `CN1CCc2c(n(-c3ccc(CCNC(=O)NS(=O)(=O)c4ccc(Cl)cc4)cc3)c3ccc(-c4ccc(F)cc4)cc23)C1=O` [Example 1-19, 4-chloro-N-{[(2-{4-[6-(4-fluorophenyl)-2-methyl-1-oxo-1,2,3,4-tetrahydro-9H-beta-carbolin-9-yl]phenyl}ethyl)amino]carbonyl}benzenesulfonamide]: the half-maximal inhibitory concentration (IC50) under setting [1] is less than 1 nM.
As for `CN1CCc2c(n(-c3ccc(CCNC(=O)NS(=O)(=O)c4ccc(Cl)cc4)cc3)c3c(Cl)cccc23)C1=O` [Example 1-20, 4-chloro-N-[({2-[4-(8-chloro-2-methyl-1-oxo-1,2,3,4-tetrahydro-9H-beta-carbolin-9-yl)phenyl]ethyl}amino)carbonyl]benzenesulfonamide], the IC50 by setting is: under setting [2], more than 5 nM; under setting [3], more than 5 nM.
Consider `CN1CCc2c(n(-c3ccc(CCNC(=O)NS(=O)(=O)c4ccc(Cl)cc4)cc3)c3ccc(-c4cccnc4)cc23)C1=O` [Example 1-21, 4-chloro-N-[({2-[4-(2-methyl-1-oxo-6-pyridin-3-yl-1,2,3,4-tetrahydro-9H-beta-carbolin-9-yl)phenyl]ethyl}amino)carbonyl]benzenesulfonamide], for which, under setting [1], the half-inhibitory concentration (IC50) is less than 1 nM.
The same measure, in the same setting: under `CN1CCc2c(n(-c3ccc(CCNC(=O)NS(=O)(=O)c4ccc(Cl)cc4)cc3)c3ccc(-c4ccccn4)cc23)C1=O` [Example 1-22, 4-chloro-N-[({2-[4-(2-methyl-1-oxo-6-pyridin-2-yl-1,2,3,4-tetrahydro-9H-beta-carbolin-9-yl)phenyl]ethyl}amino)carbonyl]benzenesulfonamide] stands less than 1 nM.
`CN1CCc2c(n(-c3ccc(CC4(NC(=O)NS(=O)(=O)c5ccc(Cl)cc5)CC4)cc3)c3ccc(-c4ccccc4F)cc23)C1=O` [Example 1-23, 4-chloro-N-{[(1-{4-[6-(2-fluorophenyl)-2-methyl-1-oxo-1,2,3,4-tetrahydro-9H-beta-carbolin-9-yl]benzyl}cyclopropyl)amino]carbonyl}benzenesulfonamide]: under setting [1], the IC50 is less than 1 nM.
With `CN1CCc2c(n(-c3ccc(CC4(NC(=O)NS(=O)(=O)c5ccc(Cl)cc5)CC4)cc3)c3ccc(-c4cccnc4)cc23)C1=O` [Example 1-24, 4-chloro-N-[({1-[4-(2-methyl-1-oxo-6-pyridin-3-yl-1,2,3,4-tetrahydro-9H-beta-carbolin-9-yl)benzyl]cyclopropyl}amino)carbonyl]benzenesulfonamide], under setting [1], the IC50 is less than 1 nM.
The same measure, in the same setting: as for `CN1CCc2c(n(-c3ccc(CC4(NC(=O)NS(=O)(=O)c5ccc(Cl)cc5)CC4)cc3)c3ccc(-c4ccsc4)cc23)C1=O` [Example 1-25, 4-chloro-N-{[(1-{4-[2-methyl-1-oxo-6-(3-thienyl)-1,2,3,4-tetrahydro-9H-beta-carbolin-9-yl]benzyl}cyclopropyl)amino]carbonyl}benzenesulfonamide], the figure is less than 1 nM; as for `CN1CCc2c(n(-c3ccc(CC4(NC(=O)NS(=O)(=O)c5ccc(Cl)cc5)CC4)cc3)c3ccc(-c4ccccn4)cc23)C1=O` [Example 1-26, 4-chloro-N-[({1-[4-(2-methyl-1-oxo-6-pyridin-2-yl-1,2,3,4-tetrahydro-9H-beta-carbolin-9-yl)benzyl]cyclopropyl}amino)carbonyl]benzenesulfonamide], less than 1 nM; as for `Cc1ccccc1-c1ccc2c(c1)c1c(n2-c2ccc(CC3(NC(=O)NS(=O)(=O)c4ccc(Cl)cc4)CC3)cc2)C(=O)N(C)CC1` [Example 1-27, 4-chloro-N-{[(1-{4-[2-methyl-6-(2-methylphenyl)-1-oxo-1,2,3,4-tetrahydro-9H-beta-carbolin-9-yl]benzyl}cyclopropyl)amino]carbonyl}benzenesulfonamide], less than 1 nM.
With `Cc1cc(C)c2c3c(n(-c4ccc(CC5(NC(=O)NS(=O)(=O)c6ccc(Cl)cc6)CC5)cc4)c2c1)C(=O)N(C)CC3` [Example 1-28, 4-chloro-N-[({1-[4-(2,5,7-trimethyl-1-oxo-1,2,3,4-tetrahydro-9H-beta-carbolin-9-yl)benzyl]cyclopropyl}amino)carbonyl]benzenesulfonamide], the 50% inhibitory concentration (IC50) under setting [1] was less than 1 nM.
For the compound `CN1CCc2c(n(-c3ccc(CC4(NC(=O)NS(=O)(=O)c5c(Cl)cccc5Cl)CC4)cc3)c3ccc(-c4ccccc4)cc23)C1=O` [Example 1-29, 2,6-dichloro-N-[({1-[4-(2-methyl-1-oxo-6-phenyl-1,2,3,4-tetrahydro-9H-beta-carbolin-9-yl)benzyl]cyclopropyl}amino)carbonyl]benzenesulfonamide], the IC50 under setting [1] was less than 1 nM.
As to `COc1cccc(OC)c1S(=O)(=O)NC(=O)NC1(Cc2ccc(-n3c4c(c5cc(-c6ccccc6)ccc53)CCN(C)C4=O)cc2)CC1` [Example 1-30, 2,6-dimethoxy-N-[({1-[4-(2-methyl-1-oxo-6-phenyl-1,2,3,4-tetrahydro-9H-beta-carbolin-9-yl)benzyl]cyclopropyl}amino)carbonyl]benzenesulfonamide], the IC50 under setting [1] is less than 1 nM.
Consider `CN1CCc2c(n(-c3ccc(CCNC(=O)NS(=O)(=O)c4ccc(Cl)cc4)cc3)c3ccc(S(C)(=O)=O)cc23)C1=O` [Example 1-31, 4-chloro-N-{[(2-{4-[2-methyl-6-(methylsulfonyl)-1-oxo-1,2,3,4-tetrahydro-9H-beta-carbolin-9-yl]phenyl}ethyl)amino]carbonyl}benzenesulfonamide], for which, under setting [1], the IC50 is less than 1 nM.
As for `CN1CCc2c(n(-c3ccc(CCNC(=O)NS(=O)(=O)c4ccc(Cl)cc4)cc3)c3cc(S(C)(=O)=O)ccc23)C1=O` [Example 1-32, 4-chloro-N-{[(2-{4-[2-methyl-7-(methylsulfonyl)-1-oxo-1,2,3,4-tetrahydro-9H-beta-carbolin-9-yl]phenyl}ethyl)amino]carbonyl}benzenesulfonamide], the IC50 (column marked X when IC50 between 1 and 5, read-out: IC50 (nm) 1 < X < 5) was 1 to 5 nM; the IC50 under setting [3] lay in the range of 1 to 5 nM.
